Data on four compounds can be found in PMC7875557, “Development and optimization of sitagliptin and dapagliflozin loaded oral self-nanoemulsifying formulation against type 2 diabetes mellitus” (Drug Delivery, 2020).

Molecules are shown by their SMILES.

Data set [1] in a line: β-carotene–linoleic acid (bleaching) assay. The settings on record: 1000 µg. The protocol:
The antioxidant activity of the samples were evaluated using the β-carotene bleaching method described by Velioglu et al. ([1998]) with modifications. One milliliter (1 mL) of a 0.2 mg/mL solution of β -carotene in chloroform was added to flasks containing 0.2 mL of Tween 20 and 0.02 mL of linoleic acid. The chloroform was removed in a rotary evaporator at 40 °C. The resulting mixture was then diluted with 100 mL of distilled water and mixed for approximately 2 min to form an emulsion. Similarly, another mixture was prepared without β-carotene to use as a blank. A control containing 0.2 mL of 80% (v/v) methanol was also used instead of sample. Aliquot of the emulsion (5 mL) was added to 0.2 mL of the sample at 1 mg/mL. As a standard, Rutin (1 mg/mL) was used. The tubes were incubated in a water bath at 40 °C for 2 h. Absorbance was measured at 470 nm at 15 min intervals, using a UV–visible spectrophotometer (UV mini-1240, Shimadzu, Japan) and the antioxidant activity was calculated from the equation below: (2) % of antioxidant activity= (Abs0 − Abst)/(Abs0° − Abst°) ×100 where, Abs0 and Abs0° represented the absorbance values measured at zero time of incubation for sample extract and control, respectively. Abst and Abst° are the absorbance values at t = 120 min for samples and control, respectively.

Data set [2] in a line: Equilibrium solubility (shake flask). It counts as physicochemical. The settings on record: for Solubility in Water (100%): 100% water. The protocol:
[…] The samples were prepared by adding an excess amount of SN and DN to the formulations, which was then thoroughly agitated with a vortex mixer to ensure adequate mixing. Three replicates were taken for each formulation. The samples for the solubility experiments were analyzed using in-house developed UHPLC method by dissolving each of the formulations with an appropriate solvent.

The next data set deals with Diabetic mice (STZ). Kind of data set: Anti-diabetic study in streptozotocin-induced diabetic mice. The class given is in vivo, Swiss albino mice. Particulars: DN 6 mg/kg, SN 10 mg/kg; for Glucose level 0 h: STZ (60 mg/kg) diabetic mice, before dose; for Glucose level 0 h / Glucose level 2 h: Mean ± SEM, n = 3; for Glucose level decrease / Glucose level 2 h / % Inhibition of glucose level: STZ diabetic mice; for Glucose level decrease: 0 h to 2 h; for Glucose level 2 h / % Inhibition of glucose level: 2 h after dose. The protocol:
Male Swiss albino mice (20–25 g) roughly of same age group were procured from the Experimental Animal Care Center, College of Pharmacy, King Saud University, with the approval Clearance No. KSU-SE—19-105 (20th November 2019) by the Ethical committee. The animals used in this study were kept at 22 °C temperature by maintaining 55% humidity and light/dark (12/12 h) conditions. They were provided free access to Purina chow and drinking water ad libitum. The […] were initially acclimatized for seven days prior to being used for the anti-diabetic studies.
Diabetes was induced overnight in fasted mice by single intraperitoneal (IP) injection of 60 mg/kg of streptozotocin (STZ) that was freshly dissolved in 0.1 M cold citrate buffer at pH 4.5. After 72 h of STZ administration, blood was collected from the animals and plasma glucose levels were examined. Animals that were confirmed diabetic by the elevated plasma glucose levels (>200 mg/dl) were used for the experiment. The animals were then randomly assigned into seven groups of three animals and received the following treatments: Group I: Normal control mice treated with Normal saline; Group II: Diabetic control mice treated with Normal saline; Group III: Diabetic mice treated with thymoquinone 5 mg/kg (IP); Group IV: Diabetic mice treated with DN 6 mg/kg (IP); Group V: Diabetic mice treated with SN 10 mg/kg (IP); Group VI: Diabetic mice treated with DN 6 mg/kg (IP) and SN 10 mg/kg (IP); Group VII: Diabetic mice treated with marketed product Dapazin® 6 mg/kg (IP).

Data set [3] is described as follows: In vivo oral bioavailability / pharmacokinetic study. The settings on record: male, Wister, rat, plasma, 6 mg/kg; rats, after oral administration; read-out: Time to peak plasma levels. The protocol:
Male rats (Wister, 200–220 g) were obtained from Laboratory Animal Center of pharmacy college, KSU. The rats were randomly allocated into two groups, each group consisted of six rats: the representative SNEDDS [F1, BSO/CMCM/CrEL (15/35/50%w/w)] (group A) and marketed drug (group B). The animals were fasted for 12 h prior to the oral administration of SNEDDS of DN (6 mg/kg rat). The experimental procedures were carried out in accordance with the principles of National Institute of Health Guide for the Care and Use of Laboratory Animals (NIH Publications No. 80–23; 1996) as well as the animal facilities guidelines from the Ethical committee of Experimental Animal Care Center, College of Pharmacy, King Saud University (Clearance No. KSU-SE—19-105; 20th November 2019). […]
In vivo animal studies were performed using only DN in the dose and SN was not included due to the different pharmacokinetic features of the SN and DN. […] The concentration of DN in plasma was determined by UHPLC as follow: A 775 μL of methanol was added to 225 μL aliquot of plasma. […] The nonlinear pharmacokinetic parameters such as Cmax, Tmax, and AUC(0–∞) were determined.
The pharmacokinetic assessment was done after oral administration on the basis of DN concentrations in the plasma samples of the rat. […] This was vortexed and transferred to an auto sampler vial to be analyzed in the UHPLC system. […]

The subject of another data set is SGLT2. Particulars: ref Santos et al., 2017, Wilding et al.; cited from earlier work.
A short description of data set [4]: DPPH free radical scavenging assay. The protocol: For antioxidant activity, DPPH (2, 2-diphenyl-1-picrylhydrazyl) free radical scavenging assay was employed. This method was carried out as previously described by Brand-Williams et al. ([1995]). The method quantifies free radical scavenging capacity of the investigated samples. DPPH is a molecule that contains a stable free radical. In the presence of an antioxidant which is able to donate an electron to DPPH, the change in the absorbance at 517 nm is followed spectrophotometrically (UV mini-1240, Shimadzu, Japan). Various concentrations of […] (10, 50, 100, 500, and 1000 μg/mL) were used. The assay mixture was made up of a total volume of 1 mL, containing 500 μL of the sample, 125 μL of the prepared DPPH, and 375 μL of methanol. As positive control, ascorbic acid was used. The samples were incubated for 30 min at 25 °C, after which the decrease in absorbance was measured at λ = 517 nm. Radical scavenging activity of the samples were calculated using the following equation below: (1) % radical scavenging activity=(Abs control − Abs sample/Abs control) ×100

Compound `C[C@@H]1O[C@@H](OC[C@H]2O[C@@H](Oc3c(-c4ccc(O)c(O)c4)oc4cc(O)cc(O)c4c3=O)[C@H](O)[C@@H](O)[C@@H]2O)[C@H](O)[C@H](O)[C@H]1O` [Rutin] had a Total antioxidant activity in data set [1] of 93.1 ± 1.2%.

In the case of `N[C@@H](CC(=O)N1CCn2c(nnc2C(F)(F)F)C1)Cc1cc(F)c(F)cc1F` [Sitagliptin, sitagliptin], the “Solubility in Water (100%)” value in data set [2] was determined as 3.62 ± 0.11 mg/g. In addition, the “Loading of SN in the anhydrous SNEDDS relative to aqueous solubility” value in data set [2] (from equilibrium solubility of diluted formulations) is greater than 400%. For the same compound, in the data set with Diabetic mice (STZ), the “Glucose level 0 h” value worked out at 381.33 ± 11.25 mg/dL, the Glucose level decrease amounted to 208 mg/dL and the “Glucose level 2 h” value turned out to be 173.33 ± 7.53 mg/dL. For the same compound, the “% Inhibition of glucose level” value in the data set on Diabetic mice (STZ) (listed as SN) came to 54.54%. Moreover, the “% Inhibition of glucose level” value with Diabetic mice (STZ) (listed as SN (Pure)) is reported as 54.54↓ %.

For `CCOc1ccc(Cc2cc([C@@H]3O[C@H](CO)[C@@H](O)[C@H](O)[C@H]3O)ccc2Cl)cc1` [Dapagliflozin, dapagliflozin], in data set [2], the “Solubility in Water (100%)” value was 1.48 ± 0.14 mg/g. Further, in the data set with Diabetic mice (STZ), the “Glucose level 0 h” value amounted to 362.00 ± 4.93 mg/dL, the Glucose level decrease was 143 mg/dL and the “Glucose level 2 h” value turned out to be 219.00 ± 7.57 mg/dL. Also, the “% Inhibition of glucose level” value with Diabetic mice (STZ) (listed as DN) is recorded as 39.50%. In addition, in the data set on Diabetic mice (STZ) (listed as DN (pure)), the “% Inhibition of glucose level” value was 39.50↓ %. Moreover, in data set [3], the Tmax is no more than 4 h. Further, the “Selectivity for SGLT2 over SGLT1” value with SGLT2 is given as 1200 fold.

With `O=C1O[C@H]([C@@H](O)CO)C(O)=C1O` [Ascorbic acid], the Radical scavenging activity turned out to be 33.7 ± 3.5% in data set [4] (10 µg); 74.1 ± 1.3% in data set [4] (50 µg); 85.6 ± 3.2% in data set [4] (100 µg); 88.7 ± 2.7% in data set [4] (500 µg); 91.7 ± 3.4% in data set [4] (1000 µg).
